The source of these data is patent publication US8653075B2, “Therapeutic methods employing substituted piperidines which are CCR3 antagonists” (Boehringer Ingelheim International GmbH, priority 2009, dated 2014).

This experiment has as its target T1, human chemokine receptor CCR3 (Homo sapiens, UniProt P51677).
T1 construct: expressed in transfected cells; host or cells: K562 cell line (hCCR3-C1 cells), membrane preparation
T1 sequence (P51677 1-355): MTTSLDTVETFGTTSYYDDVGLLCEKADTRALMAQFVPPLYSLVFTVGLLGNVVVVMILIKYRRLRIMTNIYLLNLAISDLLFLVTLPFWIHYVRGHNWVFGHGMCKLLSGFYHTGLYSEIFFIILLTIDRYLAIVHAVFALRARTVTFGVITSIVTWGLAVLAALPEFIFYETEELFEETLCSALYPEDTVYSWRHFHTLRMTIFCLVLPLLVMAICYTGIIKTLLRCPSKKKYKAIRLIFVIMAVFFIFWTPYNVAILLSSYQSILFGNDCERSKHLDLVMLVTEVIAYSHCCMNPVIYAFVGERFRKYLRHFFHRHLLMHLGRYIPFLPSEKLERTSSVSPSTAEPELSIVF
Put plainly: CCR3 receptor binding assay (SPA, 125I-eotaxin-1 displacement, hCCR3-C1 K562 cell membranes). To be noted: human Eotaxin-1 at human CCR3-Rezeptor; for inhibition at 1 µM: 1 μM test compound, read-out: CCR3 % inh @ 1 μM; for Ki: dose range 0.1 to 10000 nM. An outline of the steps:
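SPA displacement of recombinant human 125I-eotaxin-1 (30.000 dpm per well) from membranes of CCR3-transfected K562 cells (0.5-10 μg protein/well) on WGA beads. Buffer was 25 mM HEPES, 25 mM MgCl2, 1 mM CaCl2, 0.1% BSA; incubation 2 h at room temperature. Specific binding was total minus NSB (unlabelled eotaxin-1), giving % inhibition and Ki.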

The term Ki denotes a measure of affinity in units of concentration, obtained from inhibition or displacement. A high value points to a looser hold on the target. For the compound `Cc1cc(CN2CCC(N3C(=O)CC[C@@H]3C(=O)Nc3cccc(C(=O)NCC(C)(C)C)c3)CC2)ccc1Cl` [Example 163], the inhibition at 1 µM came out at 99% and the affinity corresponds to a Ki of 23 nM.
Consider `Cc1cc(CN2CCC(N3C(=O)CCC3C(=O)Nc3cc(-c4c(C)noc4C)ccn3)CC2)ccc1Cl` (stereo not drawn) [Example 192], for which the inhibition at 1 µM worked out at 96%.
As for `CNC(=O)c1cccc(NC(=O)[C@H]2CN(C)C(=O)N2C2CCN(Cc3ccc(Cl)c(C)c3)CC2)c1` [Example 131], the inhibition at 1 µM is 89% and the Ki was 85 nM.
The corresponding values for `Cc1cc(CN2CCC(N3C(=O)N(C)C[C@H]3C(=O)Nc3cc(C(C)(C)C)no3)CC2)ccc1Cl` [Example 124] are 93% and 41 nM.
For the compound `Cc1cc(CN2CCC(N3C(=O)CC[C@@H]3C(=O)NC3CCC(NS(=O)(=O)c4ccccc4)CC3)CC2)ccc1Cl` (stereo partly drawn) [Example 29], the inhibition at 1 µM turned out to be 94% and affinity was put at a Ki of 31 nM.
The corresponding values for `CNC(=O)c1cc(C)nc(NC(=O)[C@H]2CCC(=O)N2C2CCN(Cc3ccc(Cl)c(C)c3)CC2)c1` [Example 150] are 97% and 10 nM.
On the same counts, the results for `CCn1nccc1CNC(=O)[C@H]1CCC(=O)N1C1CCN(Cc2ccc(Cl)c(C)c2)CC1` [Example 41] are 66% and 395 nM.
The corresponding values for `Cc1cc(CN2CCC(N3C(=O)CC[C@H]3C(=O)NCc3ccccc3)CC2)ccc1Cl` [Example 46] are 44% and 873 nM.
Regarding `CNC(=O)c1cccc(NC(=O)[C@H]2CCC(=O)N2C2CC3CCC(C2)N3Cc2ccc(Cl)c(C)c2)c1` (stereo partly drawn) [Example 84], the inhibition at 1 µM came out at 77% and the Ki came out at 232 nM.
The corresponding values for `CNC(=O)c1cccc(NC(=O)[C@H]2CCC(=O)N2C2CCN(Cc3ccc(F)cc3)CC2)c1` [Example 202] are 69% and 390 nM.
On the same counts, the results for `Cc1cc(C(=O)N2CCCC2)cc(NC(=O)[C@H]2CCC(=O)N2C2CCN(Cc3ccc(Cl)c(C)c3)CC2)n1` [Example 132] are 102% and 1 nM.
The corresponding values for `CNC(=O)c1cccc(NC(=O)[C@H]2CCC(=O)N2C2CCN(Cc3ccc(Cl)c(C)c3)CC2)c1` [Example 151] are 95% and 18 nM.
For `Cc1cc(CN2CCC(N3C(=O)CC[C@@H]3C(=O)N(C)c3ccccn3)CC2)ccc1Cl` [Example 103], the inhibition at 1 µM came out at 54% and the Ki is 1400 nM.
The corresponding values for `CCS(=O)(=O)N(CC(=O)N(C)C)c1cccc(NC(=O)[C@H]2CCC(=O)N2C2CCN(Cc3ccc(Cl)c(C)c3)CC2)c1` [Example 21] are 96% and 11 nM.
The corresponding values for `Cc1cc(CN2CCC(N3C(=O)CC[C@@H]3C(=O)N(C)c3ccccc3)CC2)ccc1Cl` [Example 104] are 24% and 2400 nM.
The corresponding values for `Cc1cc(CN2CCC(N3C(=O)CC[C@@H]3C(=O)N[C@H]3CCN(C(=O)OC(C)(C)C)C3)CC2)ccc1Cl` [Example 14] are 60% and 540 nM.
As to `Cc1cc(CN2CCC(N3C(=O)CC[C@@H]3C(=O)Nc3cccc(C(=O)NC4CC4)c3)CC2)ccc1Cl` [Example 148], the inhibition at 1 µM came to 99% and the Ki was 10 nM.
Turning to `Cc1cc(CN2CCC(N3C(=O)CC[C@@H]3C(=O)Nc3cc(-c4c(C)noc4C)ccn3)CC2)ccc1Cl` [Example 192], the Ki is 6 nM. That is a single-digit nanomolar value.
Consider `Cc1cc(CN2CCC(N3C(=O)CC[C@@H]3C(=O)Nc3cc(C(N)=O)cc(C(=O)N(C)C)c3)CC2)ccc1Cl` [Example 107], for which the inhibition at 1 µM is 99% and the Ki is 13 nM.
The corresponding values for `CNC(=O)c1cccc(N(C)C(=O)[C@H]2CCC(=O)N2C2CCN(Cc3ccc(Cl)c(C)c3)CC2)c1` [Example 166] are 60% and 905 nM.
On the same counts, the results for `Cc1cc(CN2CCC(N3C(=O)CC[C@@H]3C(=O)Nc3cccc(C(=O)NCC(C)C)c3)CC2)ccc1Cl` [Example 137] are 101% and 4 nM.
The corresponding values for `CNC(=O)c1cccc(NC(=O)[C@H]2CCC(=O)N2C2CCN(Cc3ccc(C)c(C)c3)CC2)c1` [Example 205] are 76% and 247 nM.
Take `CNC(=O)c1cccc(NC(=O)[C@@H]2CN(C)C(=O)N2C2CCN(Cc3ccc(Cl)c(C)c3)CC2)c1` [Example 127]: the inhibition at 1 µM is 90% and the Ki was 81 nM.
On the same counts, the results for `CCOC(=O)c1cc(NC(=O)[C@H]2CCC(=O)N2C2CCN(Cc3ccc(Cl)c(C)c3)CC2)no1` [Example 93] are 95% and 29 nM.
As for `CNC(=O)c1cccc(NC(=O)[C@H]2CCC(=O)N2C2CCN(Cc3ccc(Cl)cc3)CC2)c1` [Example 201], the inhibition at 1 µM was 86% and the Ki is 119 nM.
The corresponding values for `COc1cc(OC)nc(CNC(=O)[C@@H]2CCC(=O)N2C2CCN(Cc3ccc(Cl)c(C)c3)CC2)n1` [Example 50] are 41% and 1290 nM.
The corresponding values for `Cc1cc(CN2CCC(N3C(=O)CC[C@@H]3C(=O)Nc3cc(C4CC4)nn3C)CC2)ccc1Cl` [Example 11] are 92% and 27 nM.
The corresponding values for `Cc1cc(CN2CCC(N3C(=O)N(C)C[C@H]3C(=O)Nc3cc(C4CC4)nn3C)CC2)ccc1Cl` [Example 209] are 95% and 33 nM.
Turning to `Cc1cc(CN2CCC(N3C(=O)CC[C@@H]3C(=O)Nc3cccc(N4CCCCC4)c3)CC2)ccc1Cl` [Example 19], the inhibition at 1 µM is 98% and the Ki is 7 nM.
The corresponding values for `Cc1cc(CN2CCC(N3C(=O)CC[C@H]3C(=O)NC3CCN(S(C)(=O)=O)C3)CC2)ccc1Cl` (stereo partly drawn) [Example 53] are 33% and 2010 nM.
`COC(=O)c1csc(NC(=O)[C@H]2CCC(=O)N2C2CCN(Cc3ccc(Cl)c(C)c3)CC2)n1` [Example 99]: the inhibition at 1 µM was found to be 91% and the Ki was 67 nM.
On the same counts, the results for `CNC(=O)c1cccc(NC(=O)[C@H]2CCC(=O)N2C2CCN(Cc3cc(Br)cs3)CC2)c1` [Example 207] are 75% and 442 nM.
Turning to `Cc1cc(CN2CCC(N3C(=O)CC[C@@H]3C(=O)Nc3cc(Cl)cc(C(=O)N(C)C)c3)CC2)ccc1Cl` [Example 168], the inhibition at 1 µM came to 99% and the Ki was 4 nM.
On the same counts, the results for `COc1ccc(NC(=O)[C@H]2CCC(=O)N2C2CCN(Cc3ccc(Cl)c(C)c3)CC2)cc1C(=O)N(C)C` [Example 179] are 95% and 34 nM.
`Cc1cc(CN2CCC(N3C(=O)N(C)C[C@@H]3C(=O)Nc3cccc(-c4cc[nH]n4)c3)CC2)ccc1Cl` [Example 123]: the inhibition at 1 µM was determined as 95% and the affinity corresponds to a Ki of 34 nM.
The corresponding values for `COCC(NC(=O)C1CCC(=O)N1C1CCN(Cc2ccc(Cl)c(C)c2)CC1)c1nc2ccc(Cl)cc2[nH]1` (stereo not drawn) [Example 67] are 52% and 700 nM.
On the same counts, the results for `Cc1cc(CN2CCC(N3C(=O)CC[C@@H]3C(=O)N3CCc4ccc([N+](=O)[O-])cc4C3)CC2)ccc1Cl` [Example 74] are 46% and 927 nM.
